This note sets out measurements from BindingDB's records for patent US20250163061 (Bala Therapeutics, 2025).

The structures appear in SMILES notation.

The target of the test is T1, Menin (Homo sapiens, UniProt O00255).
T1 sequence (O00255 whole entry): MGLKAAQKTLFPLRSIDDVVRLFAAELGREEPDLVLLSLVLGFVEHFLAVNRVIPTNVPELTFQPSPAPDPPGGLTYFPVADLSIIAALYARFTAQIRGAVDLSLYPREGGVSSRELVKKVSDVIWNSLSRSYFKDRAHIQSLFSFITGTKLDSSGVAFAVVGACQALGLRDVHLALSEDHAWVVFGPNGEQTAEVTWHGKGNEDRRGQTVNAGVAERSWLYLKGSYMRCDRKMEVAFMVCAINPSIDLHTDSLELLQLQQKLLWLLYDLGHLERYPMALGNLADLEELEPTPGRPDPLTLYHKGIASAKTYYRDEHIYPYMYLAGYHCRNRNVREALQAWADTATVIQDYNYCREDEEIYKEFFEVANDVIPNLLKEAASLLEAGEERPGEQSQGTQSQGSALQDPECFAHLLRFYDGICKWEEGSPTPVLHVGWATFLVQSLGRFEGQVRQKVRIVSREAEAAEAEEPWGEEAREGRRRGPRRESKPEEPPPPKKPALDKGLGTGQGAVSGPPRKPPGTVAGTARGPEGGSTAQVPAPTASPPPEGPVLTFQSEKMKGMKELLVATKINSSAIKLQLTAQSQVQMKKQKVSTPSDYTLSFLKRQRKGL
In words: Primary Assay Used to Determine Potency of MEN1 Activity Inhibition. On the procedure:
Compound activity was determined using recombinant MEN1 protein (Creativebiomart, Cat #MEN1-35H) and a custom fluorescein-labeled MLL4-43 peptide (Eton Bioscience Inc.). Interaction between MEN1 and MLL4-43 in the presence of compounds was determined by fluorescence polarization assay using a Microplate Reader ClarioStar Plus. The reaction was carried out in assay buffer (50 mM TRIS-HCl pH 7.4-7.6, 50 mM NaCl, 1 mM DTT, 0.1 mg/ml BSA). The compounds were dispensed on a 384 well Diamond Well Plate (Axigen, Cat #P-384-120SQ-C-S) using the Biomek FX liquid handling system at 100× solutions of compounds in DMSO. 2×MEN1 mix (final concentration of MEN1 10 nM) was prepared in Assay buffer and 10 μl of mixture per well was added into 384 w white Reaction plate with NBS (Corning, Cat #4513). 10 μl of Assay buffer w/o MEN1 was used for negative control. Plates were centrifuged for 1 min at 100 g. Next step the Compounds were added to Reaction plate using Biomek station via following steps: 3 μl of 100× compounds (in DMSO) were mixed thoroughly with 27 μl Assay Buffer, then 2 μl of this mixture was added to Reaction plate with 10 μl of MEN1 mix. Plates were centrifuged for 1 min at 100 g and incubated for 20 min at room temperature. Next 8 μL of MLL4-43 peptide per well was added to final concentration of MLL 0.5 nM. Plates were incubated for 1 hour at room temperature. Then fluorescence polarization was measured using Microplate Reader.
Regarding `C=CC(=O)N1CCN(CCCn2c(C#N)cc3c(C)c(CN4CCC5(CC4)CN(c4ncnc6ccc(CC(F)(F)F)cc46)C5)ccc32)CC1` [US20250163061, Compound 66], the half-maximal effective concentration (EC50) is below 75 nM.
In turn, `Cc1c(CN2CCC3(CC2)CN(c2ncnc4ccc(CC(F)(F)F)nc24)C3)ccc2c1cc(C#N)n2CC(C)N1CCN(S(C)(=O)=O)CC1` (configuration not stated) [US20250163061, Compound 67] gave an EC50 below 75 nM.
In turn, `Cc1c(CN2CCC3(CC2)CN(c2ncnc4ccc(CC(F)(F)F)cc24)C3)ccc2[nH]c(C#N)cc12` [US20250163061, Compound 68] gave a half-maximal effective concentration (EC50) below 75 nM.
`Cc1c(CN2CCC3(CC2)CN(c2ncnc4ccc(CC(F)(F)F)cc24)C3)ccc2c1cc(C#N)n2CC(C)N1CCN(S(C)(=O)=O)CC1` (configuration not stated) [US20250163061, Compound 71] came in with an EC50 below 75 nM.
Then `Cc1c(CN2CCC3(CC2)CN(c2ncnc4ccc(CC(F)(F)F)cc24)C3)ccc2c1cc(C#N)n2CC1CCC(=O)NC1` (configuration not stated) [US20250163061, Compound 72], with below 75 nM; and `CCCCS(=O)(=O)N1CCCN(C(C)Cn2c(C#N)cc3c(C)c(CN4CCC5(CC4)CN(c4ncnc6ccc(CC(F)(F)F)cc46)C5)ccc32)CC1` (configuration not stated) [US20250163061, Compound 73], with below 75 nM; and `Cc1c(CN2CCC3(CC2)CN(c2ncnc4ccc(C(F)(F)C(F)(F)F)cc24)C3)ccc2c1cc(C#N)n2C[C@H](C)N1CCN(S(C)(=O)=O)CC1` [US20250163061, Compound 75], with below 75 nM.
Then `CC(Cn1c(C#N)cc2c(F)c(CN3CCC4(CC3)CN(c3ncnc5ccc(CC(F)(F)F)cc35)C4)ccc21)N1CCN(S(C)(=O)=O)CC1` (configuration not stated) [US20250163061, Compound 78], with 75 to 500 nM; and `Cc1c(CN2CCC3(CC2)CN(c2nncc4ccc(CC(F)(F)F)cc24)C3)ccc2c1cc(C#N)n2CC(C)N1CCN(S(C)(=O)=O)CC1` (configuration not stated) [US20250163061, Compound 79], with above 5000 nM.
The same measure for `Cc1cc(CN2CCC3(CC2)CN(c2ncnc4ccc(CC(F)(F)F)cc24)C3)cc2c1cc(C#N)n2CC(C)N1CCN(S(C)(=O)=O)CC1` (configuration not stated) [US20250163061, Compound 83]: above 5000 nM; for `C=CC(=O)N1CCN(CCn2c(C#N)cc3cc(CN4CCC5(CC4)CN(c4ncnc6ccc(CC(F)(F)F)cc46)C5)ccc32)CC1` [US20250163061, Compound 86]: 75 to 500 nM.
For the compound `Cc1c(CN2CCC3(CC2)CN(c2ncnc4ccc(CC(F)(F)F)cc24)C3)ccc2c1cc(C#N)n2CC1CNC(=O)CCO1` (configuration not stated) [US20250163061, Compound 87], the half-maximal effective concentration (EC50) is below 75 nM.
The same measure for `Cc1c(CN2CCC3(CC2)CN(c2ncnc4ncc(CC(F)(F)F)cc24)C3)ccc2c1cc(C#N)n2CC(C)N1CCN(S(C)(=O)=O)CC1` (configuration not stated) [US20250163061, Compound 89]: below 75 nM; for `CS(=O)(=O)N1CCN(CCn2c(C#N)cc3cc(CN4CCC5(CC4)CN(c4ncnc6ccc(CC(F)(F)F)cc46)C5)ccc32)CC1` [US20250163061, Compound 91]: below 75 nM.
Then `Cc1c(CN2CCC3(CC2)CN(c2ncnc4ccc(CC(F)(F)F)cc24)C3)ccc2c1cc(C#N)n2CC(C)N1CCNC(=O)C1` (configuration not stated) [US20250163061, Compound 93], with below 75 nM; and `Cc1c(CN2CCC3(CC2)CN(c2ncnc4ccc(CC(F)(F)F)cc24)C3)ccc2c1cc(C#N)n2CC12CC(NC=O)(C1)C2` [US20250163061, Compound 95], with below 75 nM; and `Cc1c(CN2CCC3(CC2)CN(c2ncnc4ccc(CC(F)(F)F)cc24)C3)ccc2c1cc(C#N)n2CCN1CCOCC1` [US20250163061, Compound 97], with below 75 nM.
On to `CN(C)C/C=C/C(=O)N1CCN(CCn2c(C#N)cc3cc(CN4CCC5(CC4)CN(c4ncnc6ccc(CC(F)(F)F)cc46)C5)ccc32)CC1` [US20250163061, Compound 99], for which the concentration for a half-maximal effect (EC50) is below 75 nM.
In turn, `Cc1c(CN2CCC3(CC2)CN(c2ncnc4ccc(CC(F)(F)F)cc24)C3)ccc2c1cc(C#N)n2C[C@H]1CNC(=O)CO1` [US20250163061, Compound 101] gave a half-maximal effective concentration (EC50) below 75 nM.
The same measure for `Cc1c(CN2CCC3(CC2)CN(c2ncnc4ccc(CC(F)(F)F)cc24)C3)ccc2c1cc(C#N)n2C[C@@H]1CNC(=O)CO1` [US20250163061, Compound 102]: below 75 nM.
Then `CCN1CC(Cn2c(C#N)cc3c(C)c(CN4CCC5(CC4)CN(c4ncnc6ccc(CC(F)(F)F)cc46)C5)ccc32)OCC1=O` (configuration not stated) [US20250163061, Compound 104], with below 75 nM; and `Cc1c(CN2CCC3(CC2)CN(c2nc(=O)[nH]c4ccc(CC(F)(F)F)cc24)C3)ccc2c1cc(C#N)n2C[C@@H]1CNC(=O)CO1` [US20250163061, Compound 105], with 500 to 1000 nM.
